Seven compounds from PMC9545474, “Anticancer Water‐Soluble Organoruthenium Complexes: Synthesis and Preclinical Evaluation” (Chembiochem, 2022) can be followed below.

Where a name gives a salt, the structure may show the parent alone. Read-outs that look alike come from different tables or passages of the source.

The subject of data set [1] is A2780 ovarian cancer cells. Put plainly: 24-hour MTT chemosensitivity assay with 72-hour recovery, A2780. The data set is classed as cell-based, human. Conditions: for Selectivity index (SI), A2780: mean IC50 PNT2 / mean IC50 A2780. The procedure:
(§1) Chemosensitivity studies were undertaken using a 24‐hour MTT assay, with a 72‐hour recovery period. The IC50 values were determined against ovarian A2780 (cisplatin‐sensitive) and A2780cisR (cisplatin‐resistant) cancer cell lines, non‐small‐cell lung H460 cancer cell line, and normal prostate PNT2 cell line, exposed to each of compounds 4–8, cisplatin or the phosphine ligands (Table 1 and S4, Figures S29–S31). […] This is unusual but can be related to solubility issues not visible for the naked eye and thus hindering its activity in cells. […] When tested on their own, the phosphine ligands are not active below 100 μM for all four cell lines. […] This therefore prevents comparison with the well‐known RAPTA family, and more especially with RAPTA−C which bears a PTA ligand and a p‐cym ligand, making this complex relatively similar in terms of geometry with complex 4.[21] […] This confirms the interest of the sulfur coordinating atom in terms of cytotoxicity for organoruthenium complexes.[23]
(§2) Chemosensitivity assay: In vitro chemosensitivity tests were performed against A2780, A2780cisR, PNT2 and H460 cells. Cells were routinely maintained as monolayer cultures in RPMI 1640 medium supplemented with 10 % foetal calf serum, penicillin (100 I.U./mL) and streptomycin (100 μg/mL), sodium pyruvate (1 mM) and L‐glutamine (2 mM). For chemosensitivity studies, cells were seeded in 96‐well plates at a concentration of 7.5×10^3 cells per well and the plates were incubated for 24 h at 37 °C and a 5 % CO2 humidified atmosphere prior to drug exposure.
(§3) Complexes were dissolved in either DMSO (complexes 4, 5, and 8) or PBS (complexes 6 and 7) to provide stock solutions which were further diluted with media to provide a range of final concentrations. Drug‐media solutions were added to cells (the final concentration of DMSO was less than 1 % (v/v) in all cases) and incubated for 24 h at 37 °C and a 5 % CO2 humidified atmosphere. The drug‐media solution was removed from the wells and the cells were washed with PBS (100 μL, twice) and 200 μL of complete fresh media were added to each well. The plates were further incubated for 72 h at 37 °C and a 5 % CO2 humidified atmosphere to allow for a period of recovery. 3‐(4,5‐dimethylthiazol‐2‐yl)‐2,5‐diphenyltetrazolium bromide (MTT) (40 μL, 2.5 mg/mL) was added to each well and plates were incubated for 2 h. All solutions were then removed and 100 μL of DMSO was added to each well in order to dissolve the purple formazan crystals. A Thermo Scientific Multiskan EX microplate photometer was used to measure the absorbance in each well at 570 nm. Cell survival was determined as the absorbance of treated cells divided by the absorbance of controls and expressed as a percentage. The IC50 values were determined from plots of % survival against drug concentration. Each experiment was repeated in triplicates of triplicates and a mean value was obtained and stated as IC50 (μM) ± SD. Untreated cells were used as a negative control, and cells treated with cisplatin were used as a positive control.
(In general: Formazan colour is commonly taken as a measure of viable cells.)

Data set [2] concerns A2780cisR cisplatin-resistant ovarian cancer cells. Kind of data set: 24-hour MTT chemosensitivity assay with 72-hour recovery, A2780cisR. The data set is classed as cell-based, human. The conditions noted are these: for IC50: read-out: IC50 values ±SD, A2780cisR; for Selectivity index (SI), A2780cisR: mean IC50 PNT2 / mean IC50 A2780cisR. Here is the method:
as §1, §2, §3

For data set [3], the system named is H460 non-small-cell lung cancer cells. Kind of data set: 24-hour MTT chemosensitivity assay with 72-hour recovery, H460. The data set is classed as cell-based. The procedure:
as §1, §2, §3

Data set [4] concerns PNT2 non-cancerous human prostate cells. Kind of data set: 24-hour MTT chemosensitivity assay with 72-hour recovery, PNT2. The data set is classed as cell-based. Here is the method:
as §1, §2, §3

Data set [5] relates to A2780 cells. Put plainly: FITC annexin-V / PI apoptosis assay by flow cytometry. The conditions noted are these: A2780, 24 h, complexes 2×IC50, doxorubicin 0.5 µM; for viability at 0.5 µM: Homo sapiens. The data set is classed as cell-based, human. From the text: Annexin V‐FITC and propidium iodide (PI) have been used to distinguish between viable cells (Q1‐LL), early apoptotic cells (Q1‐LR), late apoptotic cells (Q1‐UR), and necrotic cells (Q1‐UL). […] Both complexes 6 and 8 induce apoptosis of A2780 cells and treatment with the complexes results in 99.6 % and 95.4 % of the cells in late apoptosis, respectively.
Figure 9 Flow cytometry analysis of A2780 cells exposed to complexes 6 or 8 at twice the IC50 concentration compared to a negative control. FITC reads annexin fluorescence and PE reads propidium iodide. Abbreviations: Q1‐UL=non‐viable cells; Q1‐UR=late‐stage apoptotic cells; Q1‐LR=early‐stage apoptotic cells and Q1‐LL=healthy cells.
FITC annexin‐V apoptosis assay: Flow cytometry analysis of apoptotic populations was carried out using the FITC Annexin V Apoptosis Detection Kit with PI (BioLegend®) according to manufacturer's instructions. Briefly, A2780 cells were seeded in 6‐well plates at a concentration of 1.0×10^6 cells per well and the plates were incubated for 24 h at 37 °C and a 5 % CO2 humidified atmosphere. […] Cells were then harvested using trypsin (without EDTA) and stained with PI/Annexin V‐FITC. After staining in the dark for 15 min at room temperature, cell pellets were analysed in a BD Accuri C6 Plus System flow cytometer and data was analysed using the BD Accuri C6 Plus software. These experiments were carried out in duplicate of triplicates in independent experiments; although only selected dot plots are shown, full numerical data and statistical analysis can be found in the Supporting Information.

[6] abbreviates: Homo sapiens, A2780, read-out: IC50 values ±SD, A2780.
Setting [7] is: Homo sapiens, NCI-H460, read-out: IC50 values ±SD, H460.
The mark [8] stands for this setting: Homo sapiens, PNT2, read-out: IC50 values ±SD, PNT2.
[9] abbreviates: Combined results, Average of two experiments.
The mark [10] stands for this setting: 24 h exposure, 72 h recovery, MTT, read-out: IC50 values ±SD, A2780.
[11] abbreviates: 24 h exposure, 72 h recovery, MTT.
The mark [12] stands for this setting: 24 h exposure, 72 h recovery, MTT, read-out: IC50 values ±SD, H460.
The mark [13] stands for this setting: 24 h exposure, 72 h recovery, MTT, read-out: IC50 values ±SD, PNT2.

As for `C1N2CN3CN1CP(C2)C3` [PTA, 1,3,5‐triaza‐7‐phosphaadamantane], the IC50 in data set [1] (setting [6]) is ≥ 100 µM; in data set [2] (Homo sapiens, A2780cisR), ≥ 100 µM; in data set [3] (setting [7]) it was ≥ 100 µM; in data set [4] (setting [8]) it was ≥ 100 µM.
Regarding `COc1cccc2c1C(=O)c1c(O)c3c(c(O)c1C2=O)C[C@@](O)(C(=O)CO)C[C@@H]3O[C@H]1C[C@H](N)[C@H](O)[C@H](C)O1` [Doxorubicin, doxorubicin, reference compound], the “Early apoptosis (Q1-LR)” value was 0.0% in data set [5] (setting [9]); 0.0% in data set [5] (Experiment 1, Average); 0.0% in data set [5] (Experiment 1, Rep 1); 0.0% in data set [5] (Experiment 1, Rep 2); 0.0% in data set [5] (Experiment 1, Rep 3); 0.0% in data set [5] (Experiment 2, Average). Moreover, the “Early apoptosis (Q1-LR)” value in data set [5] (Experiment 2, Rep 1) is given as 0.0%; in data set [5] (Experiment 2, Rep 2), 0.0%; in data set [5] (Experiment 2, Rep 3) it was 0.0%. The “Late apoptosis (Q1-UR)” value came to 99.9% in data set [5] (setting [9]); 99.9% in data set [5] (Experiment 1, Average); 99.8% in data set [5] (Experiment 1, Rep 1); 99.9% in data set [5] (Experiment 1, Rep 2); 100.0% in data set [5] (Experiment 1, Rep 3); 99.9% in data set [5] (Experiment 2, Average). In addition, the “Late apoptosis (Q1-UR)” value in data set [5] (Experiment 2, Rep 1) turned out to be 99.9%; in data set [5] (Experiment 2, Rep 2), 99.9%; in data set [5] (Experiment 2, Rep 3) it was 100.0%. For the same compound, the “Necrosis (Q1-UL)” value in data set [5] (setting [9]) worked out at 0.1%; in data set [5] (Experiment 1, Average), 0.1%; in data set [5] (Experiment 1, Rep 1), 0.2%; in data set [5] (Experiment 1, Rep 2), 0.1%; in data set [5] (Experiment 1, Rep 3) it was 0.0%; in data set [5] (Experiment 2, Average), 0.0%. Moreover, the “Necrosis (Q1-UL)” value in data set [5] (Experiment 2, Rep 1) amounted to 0.0%; in data set [5] (Experiment 2, Rep 2), 0.1%; in data set [5] (Experiment 2, Rep 3), 0.0%. The “Viable cells (Q1-LL)” value came to 0.0% in data set [5] (Experiment 1, Average) and 0.0% in data set [5] (Experiment 2, Average). Also, the viability at 0.5 µM stood at 0% in data set [5] (Combined results, Average of two experiments, read-out: Viable cells (Q1-LL)); 0% in data set [5] (Experiment 1, Average, read-out: Viable cells (Q1-LL)); 0% in data set [5] (Experiment 1, Rep 1, read-out: Viable cells (Q1-LL)); 0% in data set [5] (Experiment 1, Rep 2, read-out: Viable cells (Q1-LL)); 0% in data set [5] (Experiment 1, Rep 3, read-out: Viable cells (Q1-LL)); 0% in data set [5] (Experiment 2, Average, read-out: Viable cells (Q1-LL)). For the same compound, the viability at 0.5 µM in data set [5] (Experiment 2, Rep 1, read-out: Viable cells (Q1-LL)) is 0%; in data set [5] (Experiment 2, Rep 2, read-out: Viable cells (Q1-LL)) it was 0.1%; in data set [5] (Experiment 2, Rep 3, read-out: Viable cells (Q1-LL)) it was 0%.
Turning to `CC(=O)N1CN2CN(C(C)=O)CP(C2)C1` [DAPTA, 3,7‐diacetyl‐1,3,7‐triaza‐5‐phosphabicyclo[3.3.1]nonane], the IC50 was ≥ 100 µM in data set [1] (setting [6]); ≥ 100 µM in data set [2] (Homo sapiens, A2780cisR); ≥ 100 µM in data set [3] (setting [7]); ≥ 100 µM in data set [4] (setting [8]).
In the case of `Cc1ccc(C(C)C)cc1.N#CC1=C(C#N)[S][Ru-]([P+](c2ccc(C(F)(F)F)cc2)(c2cccc(S(=O)(=O)[O-])c2)c2cccc(S(=O)(=O)[O-])c2)[S]1.[Na+].[Na+]` [Complex 7, (η^6‐p‐cymene)(p‐DANPHOS)Ru(Mnt)], the IC50 in data set [1] (setting [10]) is 2.8 ± 0.8 µM; in data set [2] (setting [11]) it was 2.3 ± 0.7 µM; in data set [3] (setting [12]), 2.3 ± 0.3 µM; in data set [4] (setting [13]), 2.2 ± 0.1 µM. The “Selectivity index (SI), A2780” value in data set [1] is on record as 0.79. Moreover, the “Selectivity index (SI), A2780cisR” value in data set [2] was 0.96. Also, the “Selectivity index (SI), H460” value in data set [3] (mean IC50 PNT2 / mean IC50 H460) is given as 0.96.
In the case of `O=S(=O)(O)c1cccc(P(c2cccc(S(=O)(=O)O)c2)c2cccc(S(=O)(=O)O)c2)c1` [TPPTS, triphenylphosphine‐3,3′,3′′‐trisulfonic acid trisodium salt], the IC50 in data set [1] (setting [10]), in data set [2] (setting [11]), in data set [3] (setting [12]) and in data set [4] (setting [13]) was ≥ 100 µM throughout.
As for “(η^6‐p‐cymene)(DAPTA)Ru(Mnt) [Complex 5]”, the IC50 is 14 ± 2 µM in data set [1] (setting [10]), 72 ± 6 µM in data set [2] (setting [11]), ≥ 100 µM in data set [3] (setting [12]) and 33 ± 1.4 µM in data set [4] (setting [13]). Moreover, the “Selectivity index (SI), A2780” value in data set [1] was determined as 2.36. For the same compound, the “Selectivity factor (cross-resistance, resistance factor RF)” value in data set [2] (IC50 A2780cisR / IC50 A2780) stood at 5.1. For the same compound, in data set [2], the “Selectivity index (SI), A2780cisR” value was found to be 0.49.
As for `O=S(=O)(O)c1cccc(P(c2ccc(C(F)(F)F)cc2)c2cccc(S(=O)(=O)O)c2)c1` [p-DANPHOS, bis(3‐sulfonatophenyl)(4‐trifluoromethylphenyl)phosphine disodium dihydrate], the IC50 in data set [1] (setting [6]) is ≥ 100 µM; in data set [2] (Homo sapiens, A2780cisR), ≥ 100 µM; in data set [3] (setting [7]), ≥ 100 µM; in data set [4] (setting [8]) it was ≥ 100 µM.

A word on the IC50: it is the concentration that inhibits the measured activity by half.
